Reference: ChEMBL document CHEMBL1201862, “PubChem BioAssay data set” (2004)
Active and inactive are the calls of the source.

What was measured:
[1] = target: T1, RNA-binding protein pos-1 (Caenorhabditis elegans, UniProt G5EF15); test: disruptors of C. elegans POS-1 RNA interaction – biochemical, fluorescence polarization, dose response (AID 1964);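 further: purified POS-1 fused to maltose binding protein made in E. coli; potency of compounds blocking POS-1 binding to fluorescent RNA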
T1 sequence (G5EF15 whole entry): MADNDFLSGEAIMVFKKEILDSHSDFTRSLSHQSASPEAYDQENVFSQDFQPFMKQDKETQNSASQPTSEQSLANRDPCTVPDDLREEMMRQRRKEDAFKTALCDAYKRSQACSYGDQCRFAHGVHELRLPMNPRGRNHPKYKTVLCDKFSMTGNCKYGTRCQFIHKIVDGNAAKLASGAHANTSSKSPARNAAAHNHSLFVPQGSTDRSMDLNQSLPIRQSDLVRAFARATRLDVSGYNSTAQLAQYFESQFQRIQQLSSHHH

[2] = Counterscreen for IDE inhibitors: Luminescence-based cell-based high throughput dose response assay to identify compounds that are cytotoxic to HEK cells. [Related pubchem assays: 434962 (Primary screen (IDE inhibitors in singlicate)), 449730 (Counterscreen (Cytotoxicity in triplicate)), 435028 (Confirmation (IDE inhibitors in triplicate)) …; type: functional; conditions: HEK293
Insulin-degrading enzyme = target: T2, Insulin-degrading enzyme (Homo sapiens, UniProt P14735); test: Dose Response: Fluorescence polarization-based cell-based high throughput dose response assay for inhibitors of insulin-degrading enzyme (IDE). [Related pubchem assays: 434962 (Primary screen (IDE inhibitors in singlicate)), 449730 (Counterscreen (Cytotoxicity in triplicate)), 435028 (Confirmation (IDE inhibitors in triplicate)), 434984 (Summary …; type: functional
T2 sequence (P14735 whole entry): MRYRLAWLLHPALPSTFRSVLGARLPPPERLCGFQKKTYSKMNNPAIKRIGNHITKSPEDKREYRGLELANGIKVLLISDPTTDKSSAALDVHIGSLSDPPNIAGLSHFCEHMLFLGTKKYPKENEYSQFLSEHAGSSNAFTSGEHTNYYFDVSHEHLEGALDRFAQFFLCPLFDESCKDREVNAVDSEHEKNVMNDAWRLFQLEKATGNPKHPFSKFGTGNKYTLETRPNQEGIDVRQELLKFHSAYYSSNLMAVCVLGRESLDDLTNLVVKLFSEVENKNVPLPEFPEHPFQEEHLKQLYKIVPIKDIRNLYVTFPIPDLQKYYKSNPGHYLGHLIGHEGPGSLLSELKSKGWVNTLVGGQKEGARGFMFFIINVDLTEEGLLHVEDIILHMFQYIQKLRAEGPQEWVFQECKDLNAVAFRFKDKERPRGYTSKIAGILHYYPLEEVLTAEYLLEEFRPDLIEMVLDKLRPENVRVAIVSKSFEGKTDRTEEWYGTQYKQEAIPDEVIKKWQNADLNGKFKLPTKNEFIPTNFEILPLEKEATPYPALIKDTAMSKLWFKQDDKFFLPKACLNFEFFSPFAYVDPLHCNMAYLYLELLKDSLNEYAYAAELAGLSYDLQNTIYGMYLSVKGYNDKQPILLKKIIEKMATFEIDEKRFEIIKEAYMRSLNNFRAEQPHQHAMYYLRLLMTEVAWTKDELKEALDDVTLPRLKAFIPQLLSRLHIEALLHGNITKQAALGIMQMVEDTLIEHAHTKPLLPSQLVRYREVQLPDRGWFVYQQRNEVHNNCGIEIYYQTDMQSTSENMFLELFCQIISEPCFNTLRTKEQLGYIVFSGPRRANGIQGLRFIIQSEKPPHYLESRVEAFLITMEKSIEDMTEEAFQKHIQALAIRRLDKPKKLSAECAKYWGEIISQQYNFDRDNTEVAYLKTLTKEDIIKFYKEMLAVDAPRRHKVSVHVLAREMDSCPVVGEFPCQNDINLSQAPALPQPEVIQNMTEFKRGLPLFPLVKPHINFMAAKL

HEK293 = test: Fluorescence-based counterscreen for potentiators or agonists of NPY-Y2: cell-based high-throughput dose response assay to identify inhibitors of cyclic nucleotide gated ion channel (CNGC) activity. In this assay, the parental HEK293 cell line transfected with a cyclic-nucleotide gated ion channel (CNGC)-based cAMP sensor is used to measure inhibition of isoproterenol-induced CNGC activity by test compound.; type: functional; conditions: Homo sapiens;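 further: stimulus is 1 µM isoproterenol at EC100 plus PDE inhibitor Ro 20-1724 at 25 µM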
[3] = target: T3, Neuropeptide Y receptor type 2 (Homo sapiens, UniProt P49146); test: Fluorescence-based cell-based high-throughput dose response assay for agonists of NPY-Y2. [Related pubchem assays: 1703 (Screening assay (CNGC inhibitors).), 1359 (Screening assay (NPY-Y2 potentiators or agonists).), 1304 (Screening assay (NPY-Y1 potentiators or agonists).), 1710 (Screening assay (NPY-Y2 agonists).), 1791 (Summary AID.)]; type: functional
T3 sequence (P49146 whole entry): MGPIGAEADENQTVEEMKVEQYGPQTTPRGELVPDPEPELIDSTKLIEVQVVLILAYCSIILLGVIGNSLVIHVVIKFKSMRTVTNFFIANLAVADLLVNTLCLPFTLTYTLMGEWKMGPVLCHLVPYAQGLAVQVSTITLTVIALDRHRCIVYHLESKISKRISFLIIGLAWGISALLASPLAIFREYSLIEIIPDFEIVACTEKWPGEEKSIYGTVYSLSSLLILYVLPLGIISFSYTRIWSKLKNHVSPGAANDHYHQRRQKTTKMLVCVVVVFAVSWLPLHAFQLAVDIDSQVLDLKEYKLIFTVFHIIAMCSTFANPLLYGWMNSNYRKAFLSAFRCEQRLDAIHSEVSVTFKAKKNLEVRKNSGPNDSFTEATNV

[4] = target: T4, Neuropeptide Y receptor type 1 (Homo sapiens, UniProt P25929); test: Fluorescence-based counterscreen for agonists of NPY-Y2: cell-based high-throughput dose response assay for agonists of NPY-Y1.; type: functional
T4 sequence (P25929 whole entry): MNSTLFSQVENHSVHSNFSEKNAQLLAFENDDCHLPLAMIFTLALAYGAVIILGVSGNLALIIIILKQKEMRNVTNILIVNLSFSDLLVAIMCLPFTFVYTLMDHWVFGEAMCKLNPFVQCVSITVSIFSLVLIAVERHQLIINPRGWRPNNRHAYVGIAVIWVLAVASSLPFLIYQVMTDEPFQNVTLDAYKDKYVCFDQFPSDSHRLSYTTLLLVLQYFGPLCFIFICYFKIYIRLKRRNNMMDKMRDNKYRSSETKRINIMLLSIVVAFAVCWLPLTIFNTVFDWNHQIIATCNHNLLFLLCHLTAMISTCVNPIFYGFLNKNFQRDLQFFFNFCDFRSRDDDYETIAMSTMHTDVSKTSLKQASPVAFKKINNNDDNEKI

[5] = target: Acyl-homoserine lactone acylase PvdQ (Pseudomonas aeruginosa (strain LESB58), UniProt Q9I194); test: PvdQ acylase enzyme activity blockers – biochemical, fluorescence, plate reader and imaging, cherry-picks, dose response (AID 493231)
Sequence of Acyl-homoserine lactone acylase PvdQ (Q9I194 24-193 limits assumed): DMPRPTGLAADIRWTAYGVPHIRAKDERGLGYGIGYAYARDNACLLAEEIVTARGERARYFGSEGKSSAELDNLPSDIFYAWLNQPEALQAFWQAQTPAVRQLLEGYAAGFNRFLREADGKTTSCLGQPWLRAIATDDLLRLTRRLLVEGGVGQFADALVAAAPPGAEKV
Sequence of Acyl-homoserine lactone acylase PvdQ (Q9I194 217-762 limits assumed): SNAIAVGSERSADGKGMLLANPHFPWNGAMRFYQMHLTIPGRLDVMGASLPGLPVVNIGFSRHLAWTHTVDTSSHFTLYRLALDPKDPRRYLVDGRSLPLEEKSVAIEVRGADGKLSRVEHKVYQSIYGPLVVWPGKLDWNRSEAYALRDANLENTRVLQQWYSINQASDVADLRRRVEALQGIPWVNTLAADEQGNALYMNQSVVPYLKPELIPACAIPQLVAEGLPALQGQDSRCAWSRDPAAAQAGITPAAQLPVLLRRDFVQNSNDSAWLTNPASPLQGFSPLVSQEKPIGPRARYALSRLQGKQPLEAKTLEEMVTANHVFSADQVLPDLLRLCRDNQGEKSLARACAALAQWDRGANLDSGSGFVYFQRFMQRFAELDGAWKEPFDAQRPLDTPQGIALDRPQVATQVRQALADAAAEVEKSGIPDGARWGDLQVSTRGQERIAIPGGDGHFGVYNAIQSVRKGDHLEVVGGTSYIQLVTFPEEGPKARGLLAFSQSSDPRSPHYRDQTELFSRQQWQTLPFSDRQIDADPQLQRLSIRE

NS3 = NS3 (Hepatitis C virus, UniProt A3EZJ3); test: PubChem AID 2173; design: species or system Hepacivirus hominis
Sequence of NS3 (A3EZJ3 whole entry): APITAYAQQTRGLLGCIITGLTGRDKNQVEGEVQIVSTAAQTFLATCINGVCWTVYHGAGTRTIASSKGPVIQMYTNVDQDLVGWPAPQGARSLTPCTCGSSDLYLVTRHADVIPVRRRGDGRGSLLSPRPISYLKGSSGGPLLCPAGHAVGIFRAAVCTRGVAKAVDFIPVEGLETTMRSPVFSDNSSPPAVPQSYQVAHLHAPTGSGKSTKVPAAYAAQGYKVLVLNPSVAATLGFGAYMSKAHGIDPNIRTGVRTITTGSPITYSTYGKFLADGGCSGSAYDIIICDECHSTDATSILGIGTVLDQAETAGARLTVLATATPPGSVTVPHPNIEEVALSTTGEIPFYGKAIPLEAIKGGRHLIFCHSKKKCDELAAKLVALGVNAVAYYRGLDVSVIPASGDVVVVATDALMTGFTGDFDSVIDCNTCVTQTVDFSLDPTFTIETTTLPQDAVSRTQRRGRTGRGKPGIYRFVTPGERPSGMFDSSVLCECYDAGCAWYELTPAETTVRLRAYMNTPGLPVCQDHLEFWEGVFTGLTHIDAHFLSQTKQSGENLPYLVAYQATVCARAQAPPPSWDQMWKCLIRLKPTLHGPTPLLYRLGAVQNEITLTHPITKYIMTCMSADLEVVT

[6] = target: Induced myeloid leukemia cell differentiation protein Mcl-1 (Homo sapiens, UniProt Q07820); type: functional
Sequence of Induced myeloid leukemia cell differentiation protein Mcl-1 (Q07820 whole entry): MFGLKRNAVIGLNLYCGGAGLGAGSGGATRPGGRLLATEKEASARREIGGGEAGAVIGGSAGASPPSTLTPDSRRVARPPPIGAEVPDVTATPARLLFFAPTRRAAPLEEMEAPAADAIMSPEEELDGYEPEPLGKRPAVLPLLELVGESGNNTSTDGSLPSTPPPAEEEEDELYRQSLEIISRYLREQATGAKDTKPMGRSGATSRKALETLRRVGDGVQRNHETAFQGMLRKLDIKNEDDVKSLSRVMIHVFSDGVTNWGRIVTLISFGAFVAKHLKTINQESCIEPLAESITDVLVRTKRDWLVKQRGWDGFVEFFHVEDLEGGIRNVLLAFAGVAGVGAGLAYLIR

Vero [7] = test: cells; type: functional, cell-based; conditions: Chlorocebus sabaeus
Vero [8] = test: cells; type: functional; conditions: Chlorocebus sabaeus
[9] = HEK-293T cell viability reduction – luminescence, B-cell screen hits, cytotoxicity control for BCR NF-kB inhibitor project, dose response (AID 489021); type: functional, cell-based;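 further: HEK-293T cells carrying an NF-kB luciferase reporter; cells exposed to compound for about 14 hours before viability readout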
[10] = A cytotoxicity screen of small molecule inhibitors of the PhoP region in Salmonella typhi identified in the primary screen. [Related pubchem assays: 1850, 1864, 1985 ]; type: functional
[11] = target: Lysosomal acid glucosylceramidase (Homo sapiens, UniProt P04062); test: Dose response cell-based high throughput screening assay to identify enhancers of beta-glucosidase activity. [Related pubchem assays: 784 ]; type: functional
Sequence of Lysosomal acid glucosylceramidase (P04062 whole entry): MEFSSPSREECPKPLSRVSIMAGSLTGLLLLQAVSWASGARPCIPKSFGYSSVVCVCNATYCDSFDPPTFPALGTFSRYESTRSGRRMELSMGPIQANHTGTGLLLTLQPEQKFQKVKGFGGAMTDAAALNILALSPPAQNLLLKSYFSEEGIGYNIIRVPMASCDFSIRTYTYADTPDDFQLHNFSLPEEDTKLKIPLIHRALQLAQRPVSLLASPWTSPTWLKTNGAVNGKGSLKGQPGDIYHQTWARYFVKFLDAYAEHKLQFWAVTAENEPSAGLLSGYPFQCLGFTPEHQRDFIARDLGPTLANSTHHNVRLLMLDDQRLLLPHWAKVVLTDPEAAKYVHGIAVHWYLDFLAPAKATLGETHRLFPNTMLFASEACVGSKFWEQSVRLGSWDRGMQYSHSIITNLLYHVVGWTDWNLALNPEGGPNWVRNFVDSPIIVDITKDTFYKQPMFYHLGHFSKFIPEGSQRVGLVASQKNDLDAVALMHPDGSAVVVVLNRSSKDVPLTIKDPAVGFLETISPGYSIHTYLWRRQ

**Q.** Which EC50 [1] does the source give for `CCN(CC)c1ccc(/C=C2\C(=O)NC(=S)N(c3ccc(OC)cc3OC)C2=O)o1` here?
**A.** > 150 µM (inconclusive)

**Q.** And the IC50 [2]?
**A.** > 55.6 µM (not active)

**Q.** What about the IC50 (Insulin-degrading enzyme) of the same compound?
**A.** > 6.21 µM (active)

**Q.** Which EC50 (HEK293) does the source give for `N#Cc1c(Cl)nsc1NN` here?
**A.** 9.97 µM (active)

**Q.** And the EC50 [3]?
**A.** 9.25 µM (active)

**Q.** What about the EC50 [4] of the same compound?
**A.** 7.05 µM (active)

**Q.** For `CCOC(=O)/C(C#N)=C/c1ccc(SC)cc1`, which AC50 [5] is on record?
**A.** 18.1 µM (active)

**Q.** What does the source list for `CNc1ccc(Br)cc(C(=O)/C=C/c2cccc(OC)c2)c1=O`?
**A.** IC50 (NS3): 8.97 µM (active); IC50 [6]: 1.92 µM (active); IC50 (Vero [7]): 7.82 µM (active); CC50 (Vero [8]): 12.7 µM (active)

**Q.** For `O=C(C1CCC1)N1CCN(c2ccc(Cl)cc2)CC1`, which AC50 [5] is on record?
**A.** 13.5 µM (active)

**Q.** For `Cc1cc(C)c2nc(NC(=O)C3CSC4(C)CCC(=O)N34)sc2c1` (stereo not given), which IC50 [9] is on record?
**A.** > 80 µM (inactive)

**Q.** Which EC50 [10] does the source give for `O=C(N/N=C/c1cccs1)c1ccc2[nH]cnc2c1` here?
**A.** > 50 µM (active)

**Q.** For `CCOc1ccc(-c2noc(-c3ccncc3)n2)cc1OCC`, which EC50 [11] is on record?
**A.** > 10 µM (not active)
